The target of test [1] is T1, SMARCA2-HiBiT HeLa cells (protein which is expressed from the SMARCA2 gene) (Homo sapiens, UniProt P51531).
T1 construct: protein which is expressed from the SMARCA2 and SMARCA4 genes; host or cells: HeLa (SMARCA2-HiBiT engineered line)
The test can be described thus: SMARCA2 degradation assay (HiBiT-fusion HeLa cell line, 24 h, luminescence). The test is classed as cell-based. In short, it runs like this:
(§1)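 HiBiT-fusion HeLa lines, 8,000 cells/well, overnight attachment; cpd 10-pt series (typically 10 μM–300 pM), 24 h, 37° C. Lysis with LgBiT + HiBiT substrate, 10 min shaking at RT, luminescence read. DC50 from dose-response fit; % degradation also scored at 1 μM.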
Background: The HiBiT peptide binds its large partner to form an active luciferase.

The target in test [2] is T2, SMARCA4-HiBiT HeLa cells (protein which is expressed from the SMARCA4 gene) (Homo sapiens, UniProt P51532).
T2 construct: protein which is expressed from the SMARCA2 and SMARCA4 genes; host or cells: HeLa (SMARCA4-HiBiT engineered line)
In words: SMARCA4 degradation assay (HiBiT-fusion HeLa cell line, 24 h, luminescence). In kind it is cell-based. Summed up:
as §1

Molecules are shown by their SMILES. A value given as a limit tells only on which side of the number the result lay.

What is called DC50 is the concentration at which degradation of the target reaches its halfway point. The term inhibition denotes the share of the control response that was lost under treatment. A low value points to a response near the control.

T1 sequence (P51531 whole entry): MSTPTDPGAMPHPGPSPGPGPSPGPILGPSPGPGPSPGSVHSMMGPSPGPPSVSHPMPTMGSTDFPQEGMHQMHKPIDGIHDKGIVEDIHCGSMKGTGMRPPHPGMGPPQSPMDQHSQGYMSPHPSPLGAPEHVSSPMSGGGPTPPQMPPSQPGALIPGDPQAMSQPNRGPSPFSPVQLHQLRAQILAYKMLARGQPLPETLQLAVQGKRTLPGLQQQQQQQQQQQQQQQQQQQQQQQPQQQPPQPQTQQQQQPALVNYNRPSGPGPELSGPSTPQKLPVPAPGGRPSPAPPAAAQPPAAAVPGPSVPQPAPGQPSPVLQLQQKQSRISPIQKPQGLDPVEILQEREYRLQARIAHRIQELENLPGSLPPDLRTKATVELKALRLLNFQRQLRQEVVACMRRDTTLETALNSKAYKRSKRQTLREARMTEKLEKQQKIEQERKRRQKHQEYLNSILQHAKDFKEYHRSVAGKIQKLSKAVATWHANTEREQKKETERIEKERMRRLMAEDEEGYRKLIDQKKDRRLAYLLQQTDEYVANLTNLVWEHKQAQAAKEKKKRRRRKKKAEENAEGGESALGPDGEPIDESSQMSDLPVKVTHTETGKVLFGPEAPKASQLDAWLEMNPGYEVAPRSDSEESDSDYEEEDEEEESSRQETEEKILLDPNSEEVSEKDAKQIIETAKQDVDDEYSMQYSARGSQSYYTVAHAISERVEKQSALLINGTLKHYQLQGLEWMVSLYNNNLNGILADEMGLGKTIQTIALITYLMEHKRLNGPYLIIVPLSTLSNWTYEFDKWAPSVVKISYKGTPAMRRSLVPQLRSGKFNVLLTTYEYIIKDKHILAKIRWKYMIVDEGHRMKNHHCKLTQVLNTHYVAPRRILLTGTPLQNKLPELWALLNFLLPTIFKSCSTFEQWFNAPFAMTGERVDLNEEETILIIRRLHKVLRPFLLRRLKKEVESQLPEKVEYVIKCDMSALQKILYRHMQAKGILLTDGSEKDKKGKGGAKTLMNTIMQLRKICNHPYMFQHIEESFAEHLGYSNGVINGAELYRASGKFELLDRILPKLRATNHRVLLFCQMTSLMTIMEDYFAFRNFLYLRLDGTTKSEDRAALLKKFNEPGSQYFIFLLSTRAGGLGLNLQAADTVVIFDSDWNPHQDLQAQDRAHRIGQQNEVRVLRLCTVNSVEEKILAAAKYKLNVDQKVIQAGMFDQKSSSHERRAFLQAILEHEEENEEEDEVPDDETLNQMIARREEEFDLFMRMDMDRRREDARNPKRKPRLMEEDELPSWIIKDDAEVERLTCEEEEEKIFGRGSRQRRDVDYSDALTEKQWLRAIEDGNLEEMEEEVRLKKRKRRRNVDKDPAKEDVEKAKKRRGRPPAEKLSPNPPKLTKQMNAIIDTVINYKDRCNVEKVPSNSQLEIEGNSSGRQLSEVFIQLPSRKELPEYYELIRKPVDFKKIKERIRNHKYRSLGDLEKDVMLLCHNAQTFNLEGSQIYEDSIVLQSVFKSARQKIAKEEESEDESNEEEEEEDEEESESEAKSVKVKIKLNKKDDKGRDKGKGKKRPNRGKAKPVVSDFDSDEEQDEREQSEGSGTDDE
T2 sequence (P51532 whole entry): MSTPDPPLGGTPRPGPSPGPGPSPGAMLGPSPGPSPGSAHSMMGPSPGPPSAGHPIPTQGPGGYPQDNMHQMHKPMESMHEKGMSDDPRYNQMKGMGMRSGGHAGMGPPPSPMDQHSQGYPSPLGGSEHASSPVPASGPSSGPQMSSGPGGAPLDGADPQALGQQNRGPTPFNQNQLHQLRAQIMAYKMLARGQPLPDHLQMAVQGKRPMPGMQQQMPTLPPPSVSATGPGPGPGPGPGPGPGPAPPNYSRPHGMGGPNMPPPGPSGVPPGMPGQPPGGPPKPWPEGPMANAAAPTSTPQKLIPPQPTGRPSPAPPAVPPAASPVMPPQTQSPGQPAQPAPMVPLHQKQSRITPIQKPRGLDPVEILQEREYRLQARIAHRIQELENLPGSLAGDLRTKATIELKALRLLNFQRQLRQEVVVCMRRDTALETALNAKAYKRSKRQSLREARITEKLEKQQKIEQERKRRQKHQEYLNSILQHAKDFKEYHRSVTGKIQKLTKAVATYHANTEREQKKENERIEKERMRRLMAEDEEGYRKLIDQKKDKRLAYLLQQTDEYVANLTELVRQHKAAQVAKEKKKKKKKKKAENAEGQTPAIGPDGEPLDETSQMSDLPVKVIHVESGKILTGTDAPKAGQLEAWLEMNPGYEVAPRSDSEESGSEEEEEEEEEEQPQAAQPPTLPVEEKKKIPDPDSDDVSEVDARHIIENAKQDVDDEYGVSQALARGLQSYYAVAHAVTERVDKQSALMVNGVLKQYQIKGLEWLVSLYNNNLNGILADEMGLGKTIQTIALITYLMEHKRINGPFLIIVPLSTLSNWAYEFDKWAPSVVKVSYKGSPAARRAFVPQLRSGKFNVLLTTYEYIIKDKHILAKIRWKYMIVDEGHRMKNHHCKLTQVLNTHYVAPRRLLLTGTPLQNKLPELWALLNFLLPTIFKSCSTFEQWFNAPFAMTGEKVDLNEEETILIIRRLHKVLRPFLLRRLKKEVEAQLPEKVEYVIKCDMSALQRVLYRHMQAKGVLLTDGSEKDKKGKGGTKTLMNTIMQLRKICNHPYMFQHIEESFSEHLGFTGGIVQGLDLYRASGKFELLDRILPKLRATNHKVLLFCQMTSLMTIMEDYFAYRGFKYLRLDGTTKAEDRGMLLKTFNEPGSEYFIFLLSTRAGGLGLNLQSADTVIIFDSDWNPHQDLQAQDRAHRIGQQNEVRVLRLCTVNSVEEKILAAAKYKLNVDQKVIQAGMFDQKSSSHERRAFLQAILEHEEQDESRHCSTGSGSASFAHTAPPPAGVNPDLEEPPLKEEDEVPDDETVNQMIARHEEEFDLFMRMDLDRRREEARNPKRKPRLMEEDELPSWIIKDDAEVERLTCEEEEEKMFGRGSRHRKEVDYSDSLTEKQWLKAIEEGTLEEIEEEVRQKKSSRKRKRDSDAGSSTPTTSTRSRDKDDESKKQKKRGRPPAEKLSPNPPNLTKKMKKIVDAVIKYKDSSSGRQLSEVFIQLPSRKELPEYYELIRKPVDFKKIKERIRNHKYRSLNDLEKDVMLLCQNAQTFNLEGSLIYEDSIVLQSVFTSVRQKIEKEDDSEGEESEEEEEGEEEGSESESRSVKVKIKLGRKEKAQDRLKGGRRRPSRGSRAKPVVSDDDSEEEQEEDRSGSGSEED

Turning to `Nc1nnc(-c2ccccc2O)cc1N1CCCN(c2ccnc(C#CCNCCF)n2)CC1` [Compound P-258, o-[6-amino-5-(4-{2-[3-(2-fluoroethylamino)-1-propynyl]-4-pyrimidinyl}-1,4-diazepan-1-yl)-3-pyridazinyl]phenol], the DC50 in test [1] and in test [2] was 500 to 5000 nM in each case. In addition, the “SMARCA2 % Degradation @ 1 μM” value in test [1] (@ 1 μM) is given as “++ (++=30-70%)”. Also, the inhibition at 1 µM in test [2] (@ 1 μM) fell in the range of 30 to 70%.

Turning to `C[C@@H]1CCN(c2cc(-c3ccccc3O)nnc2N)CCN1c1ccnc(C#CCN2CCC[C@@H]2C)n1` [Compound P-233, o-{5-[(R)-4-(2-{3-[(S)-2-methyl-1-pyrrolidinyl]-1-propynyl}-4-pyrimidinyl)-5-methyl-1,4-diazepan-1-yl]-6-amino-3-pyridazinyl} phenol], the DC50 in test [1] and in test [2] was less than 50 nM throughout. Also, in test [1] (@ 1 μM), the “SMARCA2 % Degradation @ 1 μM” value is listed as “++ (++=30-70%)”. In test [2] (@ 1 μM), this compound displayed an inhibition at 1 µM of 30 to 70%.

As to `CN(C)CC#Cc1cc(OC2CCN(c3cc(-c4ccccc4O)nnc3N)CC2)ccn1` [Compound P-384, 0-[6-amino-5-(4-{2-[3-(dimethylamino)-1-propynyl]-4-pyridyloxy}-1-piperidyl)-3-pyridazinyl]phenol], the DC50 in test [1] and in test [2] was 50 to 500 nM in each case. The “SMARCA2 % Degradation @ 1 μM” value in test [1] (1 μM) is given as “++ (++=30-70%)”. Further, the inhibition at 1 µM in test [2] (1 μM) was less than 30%.

For `Nc1nnc(-c2ccccc2O)cc1N1C[C@H]2C[C@@H]1CN2c1ccnc(C#CCNC(=O)c2cc3ncccn3n2)n1` [Compound P-25, N-(3-(4-((1R,4R)-5-(3-amino-6-(2-hydroxyphenyl)pyridazin-4-yl)-2,5-diazabicyclo[2.2.1]heptan-2-yl)pyrimidin-2-yl)prop-2-yn-1-yl)pyrazolo[1,5-a]pyrimidine-2-carboxamide], the 50% degradation concentration (DC50) in test [1] and in test [2] was 50 to 500 nM each time. In test [1] (@ 1 μM), the “SMARCA2 % Degradation @ 1 μM” value is “+++ (+++=>70%)”. In addition, in test [2] (@ 1 μM), the inhibition at 1 µM is more than 70%.

As for `C[C@H](O)C#Cc1nccc(N2CCCN(c3cc(-c4ccccc4O)nnc3N)CC2)n1` [Compound P-321, 0-[5-(4-{2-[(S)-3-hydroxy-1-butynyl]-4-pyrimidinyl}-1,4-diazepan-1-yl)-6-amino-3-pyridazinyl]phenol], the 50% degradation concentration (DC50) in test [1] and in test [2] was 50 to 500 nM each time. Moreover, in test [1] (@ 1 μM), the “SMARCA2 % Degradation @ 1 μM” value is on record as “++ (++=30-70%)”. Besides, in test [2] (@ 1 μM), the inhibition at 1 µM was in the range of 30 to 70%.

Regarding `Nc1nnc(-c2ccccc2O)cc1N1CCN(c2ccnc(C#CCNC(=O)c3cnn4cccc(F)c34)n2)CC1` [Compound P-117, N-(3-(4-(4-(3-amino-6-(2-hydroxyphenyl)pyridazin-4-yl)piperazin-1-yl)pyrimidin-2-yl)prop-2-yn-1-yl)-4-fluoropyrazolo[1,5-a]pyridine-3-carboxamide], the half-maximal degradation concentration (DC50) in test [1] and in test [2] was 50 to 500 nM each time. For the same compound, the “SMARCA2 % Degradation @ 1 μM” value in test [1] (@ 1 μM) is given as “++ (++=30-70%)”. For the same compound, in test [2] (@ 1 μM), the inhibition at 1 µM was 30 to 70%.

With `CN(C)CC#Cc1nccc(N2CCCN(c3cc(-c4ccccc4O)nnc3N)CC2)n1` [Compound P-152, 2-(6-amino-5-(4-(2-(3-(dimethylamino)prop-1-yn-1-yl)pyrimidin-4-yl)-1,4-diazepan-1-yl)pyridazin-3-yl)phenol], the DC50 in test [1] and in test [2] was 50 to 500 nM throughout. For the same compound, the “SMARCA2 % Degradation @ 1 μM” value in test [1] (@ 1 μM) is listed as “+++ (+++=>70%)”. In test [2] (@ 1 μM), this compound yielded an inhibition at 1 µM of 30 to 70%.

`C[C@H]1CCN(c2cc(-c3ccccc3O)nnc2N)CCN1c1ccc(C#N)c(C#CCN(C)CC(F)(F)F)n1` [Compound P-415, 2-{3-[N-methyl(2,2,2-trifluoroethyl)amino]-1-propynyl}-6-{(S)-4-[3-amino-6-(o-hydroxyphenyl)-4-pyridazinyl]-7-methyl-1,4-diazepan-1-yl}nicotinonitrile]: the DC50 in test [1] and in test [2] was 50 to 500 nM in each case. Besides, the “SMARCA2 % Degradation @ 1 μM” value in test [1] (1 μM) is recorded as “++ (++=30-70%)”. In test [2] (1 μM), this compound returned an inhibition at 1 µM of 30 to 70%.

Consider `CC(C)(C)OC(=O)NCC#Cc1cccc(N2CCCN(c3cc(-c4ccccc4O)nnc3N)CC2)n1` [Compound P-432, 3-(6-{4-[3-amino-6-(o-hydroxyphenyl)-4-pyridaziny1]-1,4-diazepan-1-yl}-2-pyridyl)-2-propynyl 2-methyl-2-propanecarbamate], for which the DC50 in test [1] is 500 to 5000 nM; in test [2] it was more than 5000 nM.

Take `C[C@@H]1CCN(c2cc(-c3ccccc3O)nnc2N)CCN1c1ccnc(C#CCN2[C@H](C)C[C@@H]2C)n1` [Compound P-223, o-{5-[(R)-4-(2-{3-[(2R,4S)-2,4-dimethyl-1-azetidinyl]-1-propynyl}-4-pyrimidinyl)-5-methyl-1,4-diazepan-1-y1]-6-amino-3-pyridazinyl}phenol]: the DC50 in test [1] and in test [2] was less than 50 nM each time. The “SMARCA2 % Degradation @ 1 μM” value in test [1] (@ 1 μM) was “++ (++=30-70%)”. In test [2] (@ 1 μM), this compound came in with an inhibition at 1 µM of 30 to 70%.

As to `C[C@@H]1CCN(c2cc(-c3ccccc3O)nnc2N)CCN1c1ccnc(C#C[C@H](O)C2CC2)n1` [Compound P-266, 0-{5-[(R)-4-{2-[(R)-3-cyclopropyl-3-hydroxy-1-propynyl]-4-pyrimidinyl}-5-methyl-1,4-diazepan-1-yl]-6-amino-3-pyridaziny1} phenol], the DC50 in test [1] and in test [2] was 50 to 500 nM throughout. Moreover, the “SMARCA2 % Degradation @ 1 μM” value in test [1] (@ 1 μM) is recorded as “+++ (+++=>70%)”. In test [2] (@ 1 μM), this compound displayed an inhibition at 1 µM of 30 to 70%.

On to `Cc1nn2ccn(CC#Cc3nccc(N4CCN(c5cc(-c6ccccc6O)nnc5N)CC4)n3)c(=O)c2c1C` [Compound P-281, 5-[3-(4-{4-[3-amino-6-(o-hydroxyphenyl)-4-pyridazinyl]-1-piperazinyl}-2-pyrimidinyl)-2-propynyl]-2,3-dimethyl-1,5,7a-triaza-4(5H)-indenone], for which the half-maximal degradation concentration (DC50) in test [1] and in test [2] was less than 50 nM throughout. The “SMARCA2 % Degradation @ 1 μM” value in test [1] (@ 1 μM) is listed as “++ (++=30-70%)”. Also, the inhibition at 1 µM in test [2] (@ 1 μM) was 30 to 70%.

On to `Cc1cc(C)n(CC#Cc2nccc(N3CCN(c4cc(-c5ccccc5O)nnc4N)CC[C@H]3C)n2)n1` [Compound P-177, o-{5-[(R)-4-{2-[3-(3,5-dimethyl-1-pyrazolyl)-1-propynyl]-4-pyrimidinyl}-5-methyl-1,4-diazepan-1-yl]-6-amino-3-pyridazinyl}phenol], for which the DC50 in test [1] and in test [2] was 50 to 500 nM throughout. Besides, in test [1] (@ 1 μM), the “SMARCA2 % Degradation @ 1 μM” value was “++ (++=30-70%)”. This compound returned an inhibition at 1 µM in test [2] (@ 1 μM) of less than 30%.

For `C[C@@H]1CCN(c2cc(-c3ccccc3O)nnc2N)CCN1c1ccnc(C#CC2CN(CC(F)F)C2)n1` [Compound P-174, o-{5-[(R)-4-(2-{2-[1-(2,2-difluoroethyl)-3-azetidinyl]ethynyl}-4-pyrimidinyl)-5-methyl-1,4-diazepan-1-y1]-6-amino-3-pyridazinyl}phenol], the DC50 in test [1] and in test [2] was 50 to 500 nM throughout. Further, the “SMARCA2 % Degradation @ 1 μM” value in test [1] (@ 1 μM) is “+++ (+++=>70%)”. The same compound showed an inhibition at 1 µM in test [2] (@ 1 μM) of 30 to 70%.

Consider `Nc1nnc(-c2ccccc2O)cc1N1CCCC2C1CCN2c1ccnc(C#CCNC(=O)c2cc3ncccn3n2)n1` (stereo not shown) [Compound P-79, N-(3-(4-(4-(3-amino-6-(2-hydroxyphenyl)pyridazin-4-yl)octahydro-1H-pyrrolo[3,2-b]pyridin-1-yl)pyrimidin-2-yl)prop-2-yn-1-yl)pyrazolo[1,5-a]pyrimidine-2-carboxamide], for which the half-maximal degradation concentration (DC50) lay in the range of 500 to 5000 nM in test [1] and 50 to 500 nM in test [2]. Moreover, the “SMARCA2 % Degradation @ 1 μM” value in test [1] (@ 1 μM) is “++ (++=30-70%)”. Besides, in test [2] (@ 1 μM), the inhibition at 1 µM fell in the range of 30 to 70%.

As for `C[C@@H]1CCN(c2cc(-c3ccccc3O)nnc2N)CCN1c1ccc(C#N)c(C#CCN2CC3CC2C3)n1` [Compound P-393, 6-{(R)-4-[3-amino-6-(o-hydroxyphenyl)-4-pyridazinyl]-7-methyl-1,4-diazepan-1-yl}-2-{3-(2-azabicyclo[2.1.1]hex-2-yl)-1-propynyl} nicotinonitrile], the DC50 in test [1] and in test [2] was less than 50 nM each time. Further, the “SMARCA2 % Degradation @ 1 μM” value in test [1] (1 μM) is listed as “+++ (+++=>70%)”. In addition, the inhibition at 1 µM in test [2] (1 μM) lay in the range of 30 to 70%.

Regarding `Nc1nnc(-c2ccccc2O)cc1N1CCCN(c2ccnc(C#CCn3cnc4ccccc43)n2)CC1` [Compound P-150, 2-(5-(4-(2-(3-(1H-benzo[d]imidazol-1-yl)prop-1-yn-1-yl)pyrimidin-4-yl)-1,4-diazepan-1-yl)-6-aminopyridazin-3-yl)phenol], the 50% degradation concentration (DC50) in test [1] and in test [2] was 50 to 500 nM throughout. For the same compound, the inhibition at 1 µM in test [2] (@ 1 μM) fell in the range of 30 to 70%.

As for `C[C@@H]1CCN(c2cc(-c3ccccc3O)nnc2N)CCN1c1ccnc(C#CCN(C)CC(F)F)n1` [Compound P-155, o-{5-[(R)-4-(2-{3-[(2,2-difluoroethyl)-N-methylamino]-1-propynyl}-4-pyrimidinyl)-5-methyl-1,4-diazepan-1-yl]-6-amino-3-pyridazinyl}phenol], the 50% degradation concentration (DC50) in test [1] and in test [2] was 50 to 500 nM throughout. In addition, the “SMARCA2 % Degradation @ 1 μM” value in test [1] (@ 1 μM) is reported as “++ (++=30-70%)”. For the same compound, the inhibition at 1 µM in test [2] (@ 1 μM) lay in the range of 30 to 70%.

Consider `CN(C)CC#Cc1nccc(N2C[C@@H]3CN(c4cc(-c5ccccc5O)nnc4N)C[C@@H]3C2)n1` [Compound P-181, o-{5-[(1R,5S)-7-{2-[3-(dimethylamino)-1-propynyl]-4-pyrimidinyl}-3,7-diazabicyclo[3.3.0]oct-3-yl]-6-amino-3-pyridazinyl} phenol], for which the half-maximal degradation concentration (DC50) in test [1] is 50 to 500 nM; in test [2], less than 50 nM. Further, the “SMARCA2 % Degradation @ 1 μM” value in test [1] (@ 1 μM) was “++ (++=30-70%)”. Also, the inhibition at 1 µM in test [2] (@ 1 μM) was in the range of 30 to 70%.

Source of the values: patent US20260265238A1, “COMPOUNDS AND PHARMACEUTICAL COMPOSITIONS THAT DEGRADE SWI/SNF-RELATED MATRIX-ASSOCIATED ACTIN-DEPENDENT REGULATOR OF CHROMATIN SUBFAMILY A” (Plexium, Inc., priority 2023, published 2026).
